As usually defined, the IC50 is the concentration needed to halve the response being measured.

The text below walks through data of patent publication US20180228801A1, “Method for Enhancing Learning Ability and Memory of Patients with Alzheimer's Disease using Mocetinostat” (National Taiwan Normal University, priority 2017, published 2018).

The test system of assay [1] is cholinergic neurons in medial septum/diagonal band (MS/DB). The assay can be described thus: Immunohistochemical staining, cholinergic neurons (ChAT). Particulars: saline-injected mice; Mean±SEM. In kind it is in vivo, mice (C57BL/6J). On the procedure:
(§1) Further, in some embodiments of the present invention, C57BL/6J strain male mice (12 week old) are used as a subject in need. After mice are allowed to adapt to the environment for 6 days, mice are anesthetized with Avertin (0.4 g/kg; purchased from Sigma). The mice are fixed on a stereotactic apparatus for operation, followed by injecting oligomeric Aβ25-35 (10 nM, 3 μL) into bilateral hippocampal CA1 (AP: […] relative to the bregma; ML: ±[…] relative to the midline; DV: […] relative to the skull) on day 7. MGCD0103 and equal volume of vehicle (saline) are intraperitoneal (i.p.) injected once a day from day 8, the day after said operation, for 29 days. On day 24, the Open Field Test is performed; on day 26, the EPM is performed; on day 28, the Y-maze is performed; on days 30 to 36, MWM is performed; and on day 37, mice are euthanized for pathological analysis.
The inventor collects the brain tissue by perfusion followed by fixing and dehydrating, then, 30 μm frozen sections are obtained by a freezing microtome (CMS3050S, Leica). […] After that, avidin-biotin complex (ABC) is detected 1 hour after staining. […] After all sections have been stained, they are then fixed on a slide, dried, dehydrated, mounted, and photographed for quantity (performed by Image Pro Plus, Meida Cyberetics, USA). […]

Assay [2] relates to PSD95. The assay is described as follows: Western blot, PSD95. As to conditions: hippocampus. In kind it is in vivo, mice (C57BL/6J). The method, then: as §1
(In general: A western blot detects proteins with antibodies after separation by electrophoresis.)

The test system of assay [3] is astrocytes. The assay can be described thus: Immunohistochemical staining, astrocytes in hippocampus. In kind it is in vivo, mice (C57BL/6J). Particulars: Aβ25-35 mice. The method, then:
as §1
(§2) The inventor collects the brain tissue by perfusion followed by fixing and dehydrating, then, 30 μm frozen sections are obtained by a freezing microtome (CMS3050S, Leica). […] After that, avidin-biotin complex (ABC) is detected 1 hour after staining. […] After all sections have been stained, they are then fixed on a slide, dried, dehydrated, mounted, and photographed for quantity (performed by Image Pro Plus, Meida Cyberetics, USA).

Assay [4] concerns Tau protein at the Ser-202 site. The assay is described as follows: Immunohistochemical staining, pS202Tau. As to conditions: Aβ25-35 mice. It is filed as in vivo, mice (C57BL/6J). On the procedure:
as §1, §2

The subject of assay [5] is pCDK. The assay is described as follows: Western blot, pCDK. It is filed as in vivo, mice (C57BL/6J). As to conditions: hippocampus. The method, then:
as §1

For assay [6], the system named is NEP (Aβ degrading enzyme). The assay is described as follows: Western blot, NEP. It is filed as in vivo, mice (C57BL/6J). Particulars: hippocampus. On the procedure:
as §1

Assay [7] deals with acetylated tissue proteins H3. The assay is described as follows: Western blot, acetylated H3. In kind it is in vivo, mice (C57BL/6J). Particulars: chronic i.p. treatment, hippocampus. On the procedure: as §1
Assay [8] concerns acetylated alpha-tubulin. The assay is described as follows: Western blot, acetylated alpha-tubulin. It is filed as in vivo, mice (C57BL/6J). Particulars: chronic i.p. treatment, hippocampus. The method, then: as §1
Assay [9] concerns primary hippocampus neurons. The assay can be described thus: Cell viability analysis (MTT assay). As to conditions: Mus musculus, Neuron; primary hippocampus neurons treated on day 9, viability after 48 hours; read-out: IC50 dose, cell viability. In kind it is cell-based, mouse (C57BL/6J). The method, then: The method of culturing mouse primary hippocampus neurons follow from a modified method from the prior art (Seibenhener and Wooten, 2012), including: obtaining a 16-18 day old embryo from a C57BL/6J strain pregnant female mouse after euthanasia, obtaining hippocampus tissue of the embryo and digesting the tissue with 0.05% trypsin at 37° C. for 15 minutes, and seeding 3×10^4 cells per well in a 48-well plate coated with Poly-L-lysine (100 μg/mL); wherein the components of the medium includes: Neurobasal Medium® (Gibco™; ThermoFisher Scientific, USA) adding 2% of B-27® Additive (Gibco™; ThermoFisher), 0.5 mM of glutamine (Gibco™; ThermoFisher), 25 μM of glutamate (Sigma-Aldrich, USA), 20 unit/mL of penicillin/streptomycin solution (Gibco™; ThermoFisher Scientific, USA), 1 mM of 4-(2-hydroxyethyl)-1-piperazineethanesulfonic acid) (HEPES) (Sigma-Aldrich), and 1% of heat inactivated Donor Horse Serum (Gibco™; ThermoFisher). […]
(3-(4,5-Dimethylthiazol-2-yl)-2,5-diphenyltetrazolium bromide, MTT) (Sigma, USA) has an original color of yellow, which is able to carry out a reducing reaction by a succinate dehydrogenase of mitochondria within living cells that breaks the tetrazolium ring thereof so as to form formazan, which has a violet color. […] Finally, the cell viability may be analyzed by detecting the changes of violet color (O.D. 570) by a spectrophotometer. […]
A general note: Formazan colour is commonly taken as a measure of viable cells.

In assay [10] the test system is synaptophysin. The assay is described as follows: Western blot, synaptophysin. As to conditions: Aβ25-35 mice, hippocampus. In kind it is in vivo, mice (C57BL/6J). On the procedure:
as §1

Assay [11] deals with Tau protein at Thr-205. The assay is described as follows: Western blot, Tau phosphorylation at Thr-205. It is filed as in vivo, mice (C57BL/6J). Particulars: Aβ25-35 mice, hippocampus. The method, then:
as §1

On to `Nc1ccccc1NC(=O)c1ccc(CNc2nccc(-c3cccnc3)n2)cc1` [MGCD0103, N-(2-Aminophenyl)-4-[[(4-pyridin-3-ylpyrimidin-2-yl)amino]methyl] benzamide], for which the “ChAT, numbers of cholinergic neurons” value in assay [1] is reported as 52.75 ± 8.27. Further, in assay [2], the “expression of PSD95” value is recorded as “no significant difference”. For the same molecule, the numbers of astrocytes entry in [3] was “significantly decrease”. In addition, the pS202Tau result in [4] (BLA region) and in assay [4] (hippocampal CA1) was “significantly decreased” each time. For the same molecule, the “expression of pCDK” value in assay [5] is reported as “do not show difference”. Also, the “expression of NEP” value in assay [6] was “do not have significant difference”. For the same molecule, in assay [7], the “acetylation level of tissue proteins H3” value is given as “significantly improve”. Besides, the “acetylation level of alpha-tubulin” value in assay [8] was “significantly improve”. The IC50 in assay [9] was about 7 µM. The expression of synaptophysin entry in assay [10] is recorded as “significantly increased”. Besides, in assay [11], the “phosphorylation expression of Tau protein at Thr-205” value was “decreased”.
